Source: patent US20190048052A1, “ANTI-MICROBIAL PEPTIDES AND COATINGS” (Board of Regents of the University of Nebraska, priority 2016, published 2019)
≈ marks a conversion by molar mass, not a printed value. Values belong to the molecule of their own block, whether it stands above or below them. Residues, ends and D or L forms follow the SMILES beside them.

What was measured:
B. megaterium = settings: Abbassi et al. (2010); cited from earlier work
E. coli ATCC 35218 = settings: Abbassi et al. (2010); cited from earlier work
S. aureus USA300 [1] = format: cell-based, Staphylococcus aureus; settings: Table 2, first S. aureus USA300 column
Procedure: The bacterial strains used here included Gram-positive bacteria Staphylococcus aureus USA300 LAC, Staphylococcus epidermidis 1457, Bacillus subtilis 168, and Gram-negative Escherichia coli K12. Clinical strains of S. aureus, including Mu50, UAMS-1 and Newman, were also evaluated.
The antimicrobial activity of peptides was evaluated using a standard broth microdilution protocol (Wang, G. (2008) J. Biol. Chem., 283:32637-32643). In brief, exponential phase bacteria at 10^6 CFU were incubated with serially diluted peptides overnight for ˜20 hours at 37° C. The plates were read on a ChroMate® 4300 Microplate Reader at 630 nm (GMI, Ramsey, Minn.). […] In addition, the effects of human serum (up to 10%), pH (6.8, 7.4 and 8.0) and 150 mM sodium chloride (NaCl) on MICs against S. aureus USA300 were also evaluated (Mishra et al. (2015) RSC Advances 5:59758-59769).

[2] = test system: E. coli ATCC 25922 and ML-35p strains; settings: Abbassi et al. (2010); cited from earlier work
S. aureus ATCC 25923 = settings: Abbassi et al. (2010); cited from earlier work
HeLa CCL-2 cells = experiment: Cytotoxicity of PET-CysTetraF2W-RR (MTS); format: cell-based, human
Procedure: HeLa CCL-2 cells from American Type Culture Collection (ATCC) were maintained in DMEM high glucose media with 4 mM L-glutamine (NyClone) and 100 U/mL penicillin, 100 μg/mL streptomycin (pen/strep; p/s) (Life Technologies), and 10% (v/v) inactivated fetal bovine serum (FBS, NyClone), DMEM with 10% FBS, p/s. Cells were grown in 5% CO2 at 37° C. and were detached from culturing dish at 100% confluency using 0.025% trypsin-EDTA (NyClone) treatment, seeded (18,000 cells/well) in 24-well plates (Corning Life Science) and grown overnight in 200 μL DMEM media until 70% confluency. Then the old media were replaced with 500 μL of fresh DMEM media and continued to cultivate for 1 hour with the surfaces with or without peptides (1.0×1.0 cm). 200 μL of the liquid content of each well was taken out and mixed with 20 μL of MTS. The plate was further incubated for another 2 hours at 37° C. To quantify the cytotoxicity, 100 μL of the solution was placed in a 96-well plate and the absorbance was measured on a ChroMate® reader (Awareness Technology) at 492 nm. For comparison, the same amounts of soluble peptides was used to treat them in the same way as described above. Water and 0.2% SDS were used as negative and positive controls, respectively.

S. aureus USA300 [3] = format: cell-based, Staphylococcus aureus; settings: 12.5 μM
Procedure: Two types of experiments were conducted to evaluate the anti-biofilm activity of these peptides against S. aureus USA300 grown under a static condition for 24 hours to form established biofilms in presence of tryptic soy broth (TSB). The experiment was set up using a flat bottom, 96-well, polystyrene microtiter plates (Corning, COSTAR). In short, S. aureus USA300 (10^5 CFU/mL) in fresh TSB media was made from an exponentially growing culture. 200 μL of this bacterial culture was added to each well of the microtiter plates. The plates are then incubated at 37° C. for 24 hours to allow biofilm formation. Media was then carefully removed followed by washing with sterile 1×PBS to remove any unattached bacteria. Solution containing μL of 10× peptide solution and 180 μL of fresh TSB were added. The plates were again incubated at 37° C. for another 24 hours. To measure the extent of biofilm disruption by the peptides as a function of biofilm reduction, crystal violet staining was performed. Media was pipetted out and the wells were carefully washed with 200 μL of PBS to remove the loosely attached cells. Subsequently, 200 μL of 99% methanol was added for fixation and the plates were allowed to sit for 15 minutes. The plates were finally aspirated and dried. Lastly, staining was done with 200 μL of 1% crystal violet in water for 5 minutes. Excess stain was gently rinsed off with tap water, and plates were air-dried. Further, stains were solubilized in 200 μL of 33% glacial acetic acid followed by colorimetric measurement at 600 nm on a Chromate® microtiter plate reader. The amounts of biofilm growth with and without compound treatments were calculated.
In addition, live cell contents of the peptide acted biofilms was estimated by XTT [2,3-bis(2-methyloxy-4-nitro-5-sulfophenyl)-2H-tertazolium-5-carboxanilide]assay by following the manufacturer's instructions with modifications. A 10% XTT solution in TSB media was added to each well and the plates were again incubated for 2 hours at 37° C. Absorbance at 450 nm (only media with XTT containing wells served as the blank) was obtained using Chromate® microtiter plate reader. Percentage of biofilm reduction for the peptide was plotted assuming 100% biofilm growth is achieved on the bacterial wells without peptide treatment.

human red blood cells = experiment: Hemolytic ability (Example 3); format: cell-based; settings: concentration that causes 50% hemolysis
Procedure: Hemolytic analysis of selected peptides was performed using an established protocol. Briefly, human blood cells (UNMC Blood Bank) were washed three times with phosphate buffer saline (PBS) and diluted to a 2% solution. After peptide treatment, incubation at 37° C. for one hour, and centrifugation at 13,000 rpm, aliquots of the supernatant were transferred to a fresh 96-well microplate. To assess peptide cytotoxicity, the amount of hemoglobin released was measured at 545 nm. The percent lysis was calculated by assuming 100% release when human blood cells were treated with 1% TRITON™ X-100, and 0% release when incubated with PBS buffer.

S. aureus USA300 [4] = experiment: Growth inhibition in TSB media (FIG. 15A); format: cell-based, Staphylococcus aureus; settings: 3.1 μM (printed 3.1 LM), 37° C.
Procedure: FIGS. 15A and 15B show the growth inhibition (FIG. 15A) and propidium iodide-based membrane permeation (FIG. 15B) of S. aureus USA300 in TSB media by 3.1 μM of TetraF2W-RR and its single arginine variants (Table 8) at 37° C. with shaking at 100 rpm.
Fluorescence spectroscopy was also used to follow bacterial killing. In brief, μL of serially diluted 10× peptide concentrations were done in 96-well coming COSTAR microtiter plates. Propidium iodide at a fixed concentration of 20 μM per well was added to each well which was finally incubated with 88 μL of S. aureus USA300 (with a final OD600 0.1) with continuous shaking at 100 rpm with meander corner well shaking, 37° C. in a FLUOstar® Omega (BMG LABTECH Inc., NC) microplate reader. The plates were read every 5 minutes for a total duration of 2 hours with excitation and emission wavelengths at 584 nm and 620 nm, respectively.

S. aureus USA300 [5] = format: cell-based, Staphylococcus aureus
Procedure: (§1) The antimicrobial activity of peptides was evaluated using a standard broth microdilution protocol. In brief, exponential phase bacteria at 10^6 CFU were incubated with serially diluted peptides overnight for ˜20 hours at 37° C. The plates were read on a ChroMate® 4300 Microplate Reader at 630 nm (GMI, Ramsey, Minn.).

E. coli ATCC 25922 [6] = format: cell-based, Escherichia coli; settings: ATCC 25922, 20 h
Procedure: as §1

S. aureus USA300 LAC = format: cell-based, Staphylococcus aureus; settings: USA300
Procedure: (§2) Bacterial strains used in this study included Enterococcus faecium ATCC51559, Staphylococcus aureus USA300 LAC, Klebsiella pneumoniae ATCC 13883, Acinetobacter baumannii B2367-12, Pseudomonas aeruginosa PAO1, Enterobacter cloacae B2366-12 and Escherichia coli ATCC 25922, wherein the first six constituting the ESKAPE pathogens. Tryptic soy broth (TSB) for bacterial growth was obtained from BD Bioscience (Sparks, Md.).
(§3) The antibacterial activity of peptides was evaluated using a standard broth microdilution protocol as described (Wang et al. (2012) Antimicrob. Agents Chemother., 56:845-856). In brief, 5 μl of each bacterium (stored at −80° C.) were inoculated into TSB medium (2 ml) and grown overnight. A second inoculation was made in the morning by delivering 10 μl of the overnight culture to a fresh TSB medium. After 2-3 hours growth at 37° C., 225 rpm, logarithmic phase bacterial cultures (OD600≈0.5) were diluted and partitioned into a 96-well polystyrene microplate with ˜10^5 colony forming units (CFU) per well (90 μl aliquots). After treatment with 10 μl of peptide solutions at various concentrations, microplates were incubated at 37° C. overnight and read on a ChroMate® 4300 Microplate Reader at 630 nm (GMI, Ramsey, Minn.). The medium was used as a blank where no bacteria should grow.

E. coli ATCC 25922 [7] = format: cell-based, Escherichia coli; settings: ATCC 25922
Procedure: as §2, §3

E. faecium ATCC51559 = format: cell-based, Enterococcus faecium; settings: ATCC51559
Procedure: as §2, §3

P. aeruginosa PAO1 = format: cell-based, Pseudomonas aeruginosa
Procedure: as §2, §3

A. baumannii B2367-12 = format: cell-based, Acinetobacter baumannii; settings: B2367-12
Procedure: as §2, §3

E. cloacae B2366-12 = format: cell-based, Enterobacter cloacae; settings: B2366-12
Procedure: as §2, §3

ESKAPE pathogens = format: cell-based
Procedure: as §2, §3

Structure (SMILES): CC[C@H](C)[C@H](NC(=O)[C@H](CCCNC(=N)N)NC(=O)[C@H](CO)NC(=O)[C@H](CC(C)C)NC(=O)[C@H](Cc1ccccc1)NC(=O)[C@H](Cc1ccccc1)NC(=O)[C@@H](N)Cc1ccccc1)C(=O)N[C@@H](Cc1ccccc1)C(N)=O [Temporin-SHf, FFFLSRIF] (H-FFFLSRIF-NH2; N-terminus and C-terminus assumed)
MIC B. megaterium (B. megaterium): 3 µM (≈ 3.23 µg/mL) | MIC E. coli ATCC 35218 (E. coli ATCC 35218): > 200 µM | MIC S. aureus USA300 (S. aureus USA300 [1]): 25 µM (≈ 26.9 µg/mL) | MIC E. coli ATCC 25922 and ML-35p strains [2]: 25 to 30 µM | MIC S. aureus ATCC 25923 (S. aureus ATCC 25923): 12.5 µM (≈ 13.4 µg/mL)

Structure (SMILES): CC[C@H](C)[C@H](NC(=O)[C@H](CCCNC(=N)N)NC(=O)[C@H](CCCNC(=N)N)NC(=O)[C@H](CC(C)C)NC(=O)[C@H](Cc1c[nH]c2ccccc12)NC(=O)[C@H](Cc1c[nH]c2ccccc12)NC(=O)[C@H](Cc1c[nH]c2ccccc12)NC(=O)[C@@H](N)CS)C(=O)N[C@@H](Cc1c[nH]c2ccccc12)C(N)=O [CysTetraF2W-RR] (H-CWWWLRRIW-NH2; N-terminus and C-terminus assumed)
toxicity to HeLa CCL-2 cells (HeLa CCL-2 cells): nontoxic

Structure (SMILES): CC[C@H](C)[C@H](NC(=O)[C@H](CCCNC(=N)N)NC(=O)[C@H](CCCNC(=N)N)NC(=O)[C@H](CCCNC(=N)N)NC(=O)[C@H](Cc1c[nH]c2ccccc12)NC(=O)[C@H](Cc1c[nH]c2ccccc12)NC(=O)[C@@H](N)Cc1c[nH]c2ccccc12)C(=O)N[C@@H](Cc1c[nH]c2ccccc12)C(N)=O [Peptide L4R, WWWRRRIW] (H-WWWRRRIW-NH2; N-terminus assumed)
killing in preformed biofilms (XTT) (S. aureus USA300 [3]): 20% | HL50 (human red blood cells): >200 µM | growth inhibition of S. aureus USA300 (S. aureus USA300 [4]): also potent | loss in activity compared to the WT (S. aureus USA300 [5]; MRSA USA300): four-fold | S. aureus (MIC) (S. aureus USA300 [5]; S. aureus USA300): 12.5 µM | E. coli (MIC) (E. coli ATCC 25922 [6]): 25 µM

MIC SA (S. aureus USA300 LAC): 4.67 ± 1.8 µM (≈ 9.55 µg/mL) | MIC EC (E. coli ATCC 25922 [7]): 4.67 ± 2.2 µM (≈ 9.55 µg/mL) | MIC EF (E. faecium ATCC51559): 3.1 ± 0 µM (≈ 6.34 µg/mL) | MIC PA (P. aeruginosa PAO1): 50 µM (≈ 102 µg/mL) | MIC AB (A. baumannii B2367-12): 4.67 ± 2.2 µM (≈ 9.55 µg/mL) | MIC ECl (E. cloacae B2366-12): 12.5 ± 0 µM (≈ 25.6 µg/mL) | MIC range against almost all / most of the tested strains (ESKAPE pathogens): 3.1 to 12.5 µM
Structure (SMILES): CC[C@H](C)[C@H](NC(=O)[C@H](CCCNC(=N)N)NC(=O)[C@H](CCC(N)=O)NC(=O)[C@@H](NC(=O)[C@@H](NC(=O)[C@H](CCCNC(=N)N)NC(=O)[C@H](CCCCN)NC(=O)[C@@H](N)Cc1ccccc1)[C@@H](C)CC)C(C)C)C(=O)N[C@@H](CCCCN)C(=O)N[C@@H](CC(=O)O)C(=O)N[C@@H](Cc1ccccc1)C(=O)N[C@@H](CC(C)C)C(=O)N[C@@H](CCCNC(=N)N)C(=O)N[C@@H](CC(N)=O)C(=O)N[C@@H](CC(C)C)C(=O)N[C@H](C(N)=O)C(C)C [FK-16, FKRIVQRIKDFLRNLV, reference compound] (H-FKRIVQRIKDFLRNLV-NH2; N-terminus and C-terminus assumed)
